What was measured:
[1] = system: Cancer cell lines that are resistant to palbociclib and tamoxifen; assay: Annexin V assay, sequential CDK4 and 6 inhibitor treatment; type: cell-based; details: sequential treatment in combination with ET (fulvestrant or tamoxifen)
Protocol: (§1) Resistant breast cancer cells are prepared by treating breast cancer cell lines with amounts of a CDK4 and 6 inhibitor (either abemaciclib or palbociclib) in combination with 4-OH-tamoxifen (tamoxifen) for 120-144 h. The cells are sorted and screened for resistant cells, defined as geminin positive (GEM+), a marker of S/G2/M cell cycle accumulation. To confirm the resistant phenotype, cell lines are treated with tamoxifen plus the CDK4 and 6 inhibitor used to drive resistance (either abemaciclib or palbociclib). Resistant cancer cells generated by the above method are treated with abemaciclib in combination with an endocrine therapy (ET) comprising either fulvestrant or tamoxifen; or with palbociclib in combination with either fulvestrant or tamoxifen. Cell proliferation and viability are evaluated by Geminin/Ki67, annexin V, and colony formation assays. Mechanisms of resistance and the effects of sequential treatment of the CDK4 and 6 inhibitor in combination with either fulvestrant or tamoxifen are characterized by western blot and RNAseq analysis.

[2] = system: Cancer cell lines that are resistant to palbociclib and tamoxifen; assay: Characterization of effects of sequential treatment (proliferation, pRb signaling, androgen response); type: cell-based; details: sequential treatment in combination with ET
Protocol: as §1

[3] = system: early breast cancer at high risk of recurrence; details: adjuvant setting; patients with early breast cancer at high risk of recurrence; cited from earlier work
[4] = system: Cancer cell lines that are resistant to palbociclib and tamoxifen; assay: Geminin/Ki67 cell proliferation assay, sequential CDK4 and 6 inhibitor treatment; type: cell-based; details: sequential treatment in combination with ET (fulvestrant or tamoxifen)
Protocol: as §1

[5] = system: Cancer cell lines that are resistant to palbociclib and tamoxifen; assay: Colony formation assay, sequential CDK4 and 6 inhibitor treatment; type: cell-based; details: sequential treatment in combination with ET (fulvestrant or tamoxifen)
Protocol: as §1

[6] = system: HR+, HER2− advanced or metastatic breast cancer; type: in vivo, human; details: investigation arm: abemaciclib 150 mg PO BID and fulvestrant 500 mg IM; expected
Protocol: As detailed below, a clinical trial is conducted as a Phase 3, global, multicenter, randomized, double-blind, placebo-controlled study in participants with HR+, HER2− advanced or metastatic breast cancer. The study will enroll adults who experienced disease progression on a CDK4 and 6 inhibitor and an aromatase inhibitor (AI) therapy in the first-line setting (initial therapy for advanced or metastatic breast cancer), or recurrence on or after a CDK4 and 6 inhibitor with endocrine therapy (ET) in the adjuvant setting.
The trial will include approximately 350 participants that will be randomly assigned to one of two intervention arms that include an investigational arm A: abemaciclib and fulvestrant and a control arm B: placebo and fulvestrant. […]
The primary endpoint, PFS by investigator assessment, is defined as the time from randomization until the first occurrence of documented disease progression as determined by investigator assessment per RECIST 1.1, or death from any cause in the absence of documented progressive disease. […]

[7] = system: palbociclib-resistant cells; assay: Western blot analysis after sequential treatment; type: cell-based; details: in combination with ET
Protocol: as §1

[8] = system: HR+, HER2− advanced or metastatic breast cancer; details: abemaciclib 150 mg BID in combination with fulvestrant; patients; cited from earlier work
[9] = system: abemaciclib-resistant cells; assay: Characterization of effects of sequential treatment (proliferation, pRb signaling, androgen response); type: cell-based; details: in combination with ET
Protocol: as §1

[10] = system: abemaciclib-resistant cells; assay: Western blot analysis after sequential treatment; type: cell-based; details: in combination with ET
Protocol: as §1

[11] = system: cell lines resistant to abemaciclib and tamoxifen; assay: Cell proliferation and viability assays (Geminin/Ki67, annexin V, colony formation), sequential treatment; type: cell-based; details: sequential treatment in combination with ET
Protocol: as §1

SMILES | apoptosis [1] | androgen response [2] | pRb signaling [2] | proliferation [2] | distant relapse-free survival (DRFS) [3] | invasive disease-free survival (IDFS) [3] | % GEM+ [4] | Ki67 levels [4] | colony formation ability [5] | disease progression [6] | FOXMI, a regulator of senescence and apoptosis [7] | cyclin A, a marker of mitosis [7] | OS benefit compared to fulvestrant/placebo [8] | PFS benefit compared to fulvestrant/placebo [8] | safety profile [8] | effects on proliferation, pRb signaling, or androgen response [9] | effects on FOXMI and cyclin A [10] | inhibition effects (% GEM+, colony formation ability, Ki67 levels, apoptosis) [11]
CCN1CCN(Cc2ccc(Nc3ncc(F)c(-c4cc(F)c5nc(C)n(C(C)C)c5c4)n3)nc2)CC1 [abemaciclib, [5-(4-ethyl-piperazin-1-ylmethyl)-pyridin-2-yl]-[5-fluoro-4-(7-fluoro-3-isopropyl-2-methyl-3H-benzoimidazol-5-yl)-pyrimidin-2-yl]-amine] | increased | induction | decreased | decrease | significant improvement | significant improvement | decreased | decreased | decreased | delay disease progression | decrease | decrease | clinically meaningful | clinically meaningful | manageable safety profile |  |  | 
CC(=O)c1c(C)c2cnc(Nc3ccc(N4CCNCC4)cn3)nc2n(C2CCCC2)c1=O [palbociclib, 6-acetyl-8-cyclopentyl-5-methyl-2-{[5-(piperazin-1-yl)pyridine-2-yl]amino}pyrido[2,3,-d]pyrimidin-7 (8H)-one] |  |  |  |  |  |  |  |  |  |  |  |  |  |  |  | do not exhibit similar effects | do not exhibit similar effects | do not show similar inhibition effects

Reference: patent US20240398832A1, “CDK4 AND 6 INHIBITOR IN COMBINATION WITH FULVESTRANT FOR THE TREATMENT OF HORMONE RECEPTOR-POSITIVE, HUMAN EPIDERMAL GROWTH FACTOR RECEPTOR 2-NEGATIVE ADVANCED OR METASTATIC BREAST CANCER IN PATIENTS PREVIOUSLY TREATED WITH A CDK4 AND 6 INHIBITOR” (Eli Lilly and Company, priority 2021, published 2024)
